For data set [1] the following is noted: for mass density: 101.33 kPa, Liquid, Pycnometric method; for Normal melting temperature: Crystal, visual observation.
Data set [2] can be described thus: refractive index (Na D-line) (dimensionless). To be noted: 101.33 kPa, Liquid, Standard Abbe refractometry.

Numbers after ± are expanded uncertainties.

Broadly, the mass density is mass per unit of volume. For orientation: refractive index means the speed of light in vacuum divided by its phase velocity in the sample.

For the compound `Cc1ccc(C(=O)N(O)c2ccccc2)cc1[N+](=O)[O-]` [N-hydroxy-4-methyl-3-nitro-N-phenylbenzamide], the mass density in data set [1] (298.15 K) worked out at 1437 ± 0.9 kg/m3; in data set [1] (303.15 K), 1433.5 ± 0.9 kg/m3; in data set [1] (308.15 K), 1430.2 ± 0.9 kg/m3; in data set [1] (313.15 K), 1428.5 ± 0.9 kg/m3. The Normal melting temperature in data set [1] was 117.00 ± 2 °C. Moreover, the refractive index came out at 1.4371 ± 0.0004 in data set [2] (298.15 K), 1.4336 ± 0.0004 in data set [2] (303.15 K), 1.4302 ± 0.0004 in data set [2] (308.15 K) and 1.4286 ± 0.0004 in data set [2] (313.15 K).

With `O=C(c1ccc([N+](=O)[O-])cc1)N(O)c1ccccc1` [N-hydroxy-4-nitro-N-phenylbenzamide], the Normal melting temperature in data set [1] came to 168.00 ± 2 °C.

In the case of `O=C(c1ccccc1)N(O)c1ccccc1` [N-phenylbenzohydroxamic acid], the mass density in data set [1] (298.15 K) was 945.8 ± 0.6 kg/m3; in data set [1] (303.15 K), 940.4 ± 0.6 kg/m3; in data set [1] (308.15 K) it was 936.3 ± 0.6 kg/m3; in data set [1] (313.15 K), 931.2 ± 0.6 kg/m3. In addition, the Normal melting temperature in data set [1] was 121.00 ± 2 °C. In addition, the refractive index in data set [2] (298.15 K) was found to be 1.4269 ± 0.0004; in data set [2] (303.15 K), 1.4257 ± 0.0004; in data set [2] (308.15 K), 1.4241 ± 0.0004; in data set [2] (313.15 K) it was 1.4221 ± 0.0004.

Take `CN(C)C=O` [dimethylformamide]: the mass density in data set [1] (298.15 K) turned out to be 945.2 ± 0.9 kg/m3; in data set [1] (303.15 K) it was 939.7 ± 0.8 kg/m3; in data set [1] (308.15 K), 935.6 ± 0.8 kg/m3; in data set [1] (313.15 K) it was 930.2 ± 0.9 kg/m3. The refractive index in data set [2] (298.15 K) is 1.427 ± 0.0004; in data set [2] (303.15 K) it was 1.4253 ± 0.0004; in data set [2] (308.15 K) it was 1.423 ± 0.0004; in data set [2] (313.15 K), 1.421 ± 0.0004.

The values are drawn from the NIST ThermoML archive (doi:10.1016/j.jct.2012.03.020).
